This is an account of results in ChEMBL document CHEMBL5291721, “A preclinical secondary pharmacology resource illuminates target-adverse drug reaction associations of marketed drugs” (Nat Commun, 2023).

Structures are written as SMILES.

Assay [1] concerns the target 5-hydroxytryptamine receptor 2A (Homo sapiens, UniProt P28223). The format is functional, cell-based.
Another assay deals with Histamine H1 receptor (Homo sapiens, UniProt P35367).
Assay [2] deals with Gamma-aminobutyric acid receptor subunit alpha-1/alpha-2/beta-2/gamma-2 (Homo sapiens, UniProt P14867+P18507+P47869+P47870). The format is functional, cell-based.
A further assay has as its target D(1A) dopamine receptor (Homo sapiens, UniProt P21728).
In assay [3] the target is T1, Alpha-2A adrenergic receptor (Homo sapiens, UniProt P08913).
T1 sequence (P08913 whole entry): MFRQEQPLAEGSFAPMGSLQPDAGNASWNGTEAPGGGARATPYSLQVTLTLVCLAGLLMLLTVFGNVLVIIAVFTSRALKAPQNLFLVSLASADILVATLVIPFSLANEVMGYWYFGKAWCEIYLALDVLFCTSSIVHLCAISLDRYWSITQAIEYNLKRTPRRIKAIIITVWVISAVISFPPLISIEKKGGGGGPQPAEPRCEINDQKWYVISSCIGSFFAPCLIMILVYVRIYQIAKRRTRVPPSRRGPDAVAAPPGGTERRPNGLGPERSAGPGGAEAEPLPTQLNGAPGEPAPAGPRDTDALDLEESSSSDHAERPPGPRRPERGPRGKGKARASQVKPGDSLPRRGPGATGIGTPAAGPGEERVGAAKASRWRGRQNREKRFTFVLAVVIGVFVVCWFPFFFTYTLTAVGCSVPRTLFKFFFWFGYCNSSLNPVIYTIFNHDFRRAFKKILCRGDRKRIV

In assay [4] the target is T2, Corticotropin-releasing factor receptor 1 (Homo sapiens, UniProt P34998).
T2 sequence (P34998 whole entry): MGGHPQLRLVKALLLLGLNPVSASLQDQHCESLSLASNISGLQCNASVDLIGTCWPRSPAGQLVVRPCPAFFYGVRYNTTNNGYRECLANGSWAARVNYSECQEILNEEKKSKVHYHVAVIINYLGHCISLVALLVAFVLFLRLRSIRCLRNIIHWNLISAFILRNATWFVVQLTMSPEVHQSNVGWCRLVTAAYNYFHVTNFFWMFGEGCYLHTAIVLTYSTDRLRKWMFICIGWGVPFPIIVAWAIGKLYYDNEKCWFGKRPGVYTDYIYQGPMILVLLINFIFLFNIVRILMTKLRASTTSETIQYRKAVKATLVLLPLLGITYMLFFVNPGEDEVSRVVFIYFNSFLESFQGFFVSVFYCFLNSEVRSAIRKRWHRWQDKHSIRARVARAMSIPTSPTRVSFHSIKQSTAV

Assay [5] has as its target Neurotensin receptor type 1 (Homo sapiens, UniProt P30989).
Another assay deals with T3, Androgen receptor (Homo sapiens, UniProt P10275).
T3 sequence (P10275 whole entry): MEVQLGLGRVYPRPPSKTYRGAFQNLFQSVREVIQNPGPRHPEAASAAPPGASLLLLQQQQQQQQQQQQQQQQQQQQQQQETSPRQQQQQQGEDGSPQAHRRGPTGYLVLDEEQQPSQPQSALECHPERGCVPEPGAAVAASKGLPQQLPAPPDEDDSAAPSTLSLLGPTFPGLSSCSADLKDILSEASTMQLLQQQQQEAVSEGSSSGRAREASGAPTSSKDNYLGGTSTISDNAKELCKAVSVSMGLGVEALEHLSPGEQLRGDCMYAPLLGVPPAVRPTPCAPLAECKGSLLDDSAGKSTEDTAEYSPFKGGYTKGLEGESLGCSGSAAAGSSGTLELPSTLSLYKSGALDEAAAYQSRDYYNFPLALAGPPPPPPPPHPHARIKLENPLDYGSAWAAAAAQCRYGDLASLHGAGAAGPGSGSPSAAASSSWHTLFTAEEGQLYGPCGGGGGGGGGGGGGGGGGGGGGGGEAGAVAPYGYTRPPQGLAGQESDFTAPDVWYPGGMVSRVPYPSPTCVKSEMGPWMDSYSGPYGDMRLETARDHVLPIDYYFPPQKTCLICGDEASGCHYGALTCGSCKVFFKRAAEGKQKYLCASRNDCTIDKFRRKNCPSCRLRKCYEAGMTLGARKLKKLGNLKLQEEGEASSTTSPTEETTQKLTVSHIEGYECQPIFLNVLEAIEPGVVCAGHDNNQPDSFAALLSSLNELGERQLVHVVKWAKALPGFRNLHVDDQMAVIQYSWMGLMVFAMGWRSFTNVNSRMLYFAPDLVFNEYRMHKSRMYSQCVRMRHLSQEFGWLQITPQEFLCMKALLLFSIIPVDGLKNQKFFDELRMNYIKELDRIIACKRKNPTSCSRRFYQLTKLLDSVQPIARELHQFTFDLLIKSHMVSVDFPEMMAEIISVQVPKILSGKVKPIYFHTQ

Assay [6] deals with T4, 5-hydroxytryptamine receptor 1A (Homo sapiens, UniProt P08908).
T4 sequence (P08908 whole entry): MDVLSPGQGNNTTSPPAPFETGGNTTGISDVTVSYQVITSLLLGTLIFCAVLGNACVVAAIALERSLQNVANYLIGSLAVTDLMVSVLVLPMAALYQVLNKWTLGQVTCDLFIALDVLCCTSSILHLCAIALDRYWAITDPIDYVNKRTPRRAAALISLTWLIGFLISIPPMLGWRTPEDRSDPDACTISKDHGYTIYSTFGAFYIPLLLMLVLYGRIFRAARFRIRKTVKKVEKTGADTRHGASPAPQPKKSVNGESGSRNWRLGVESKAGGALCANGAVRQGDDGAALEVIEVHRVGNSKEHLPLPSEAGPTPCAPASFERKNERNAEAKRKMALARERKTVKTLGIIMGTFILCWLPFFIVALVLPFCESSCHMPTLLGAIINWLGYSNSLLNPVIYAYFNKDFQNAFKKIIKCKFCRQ
Further: assay procedure not described here.

Chain of Histamine H1 receptor (P35367 whole entry): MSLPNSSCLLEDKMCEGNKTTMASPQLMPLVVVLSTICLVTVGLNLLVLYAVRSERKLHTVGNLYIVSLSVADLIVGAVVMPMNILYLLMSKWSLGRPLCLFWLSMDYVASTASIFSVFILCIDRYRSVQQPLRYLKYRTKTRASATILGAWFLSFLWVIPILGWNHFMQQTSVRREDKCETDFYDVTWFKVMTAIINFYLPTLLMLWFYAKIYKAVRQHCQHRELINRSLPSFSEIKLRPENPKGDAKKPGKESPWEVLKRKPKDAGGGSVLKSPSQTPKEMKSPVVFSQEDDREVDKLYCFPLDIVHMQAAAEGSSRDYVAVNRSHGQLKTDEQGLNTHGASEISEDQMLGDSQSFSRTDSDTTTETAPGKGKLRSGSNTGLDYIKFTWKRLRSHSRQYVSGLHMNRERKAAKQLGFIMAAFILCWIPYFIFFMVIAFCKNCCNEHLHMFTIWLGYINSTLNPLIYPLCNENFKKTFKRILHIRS
Chain of Neurotensin receptor type 1 (P30989 whole entry): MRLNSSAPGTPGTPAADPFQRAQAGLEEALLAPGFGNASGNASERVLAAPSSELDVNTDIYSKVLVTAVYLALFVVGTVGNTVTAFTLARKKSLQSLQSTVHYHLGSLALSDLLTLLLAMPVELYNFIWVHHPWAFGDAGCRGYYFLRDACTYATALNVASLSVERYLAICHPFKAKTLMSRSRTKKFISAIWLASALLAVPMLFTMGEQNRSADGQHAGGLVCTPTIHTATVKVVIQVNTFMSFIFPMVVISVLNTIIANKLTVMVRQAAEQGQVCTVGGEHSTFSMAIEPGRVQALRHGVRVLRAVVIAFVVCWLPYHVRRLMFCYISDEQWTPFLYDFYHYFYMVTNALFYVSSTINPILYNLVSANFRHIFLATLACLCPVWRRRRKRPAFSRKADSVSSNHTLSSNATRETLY
Chain of 5-hydroxytryptamine receptor 2A (P28223 whole entry): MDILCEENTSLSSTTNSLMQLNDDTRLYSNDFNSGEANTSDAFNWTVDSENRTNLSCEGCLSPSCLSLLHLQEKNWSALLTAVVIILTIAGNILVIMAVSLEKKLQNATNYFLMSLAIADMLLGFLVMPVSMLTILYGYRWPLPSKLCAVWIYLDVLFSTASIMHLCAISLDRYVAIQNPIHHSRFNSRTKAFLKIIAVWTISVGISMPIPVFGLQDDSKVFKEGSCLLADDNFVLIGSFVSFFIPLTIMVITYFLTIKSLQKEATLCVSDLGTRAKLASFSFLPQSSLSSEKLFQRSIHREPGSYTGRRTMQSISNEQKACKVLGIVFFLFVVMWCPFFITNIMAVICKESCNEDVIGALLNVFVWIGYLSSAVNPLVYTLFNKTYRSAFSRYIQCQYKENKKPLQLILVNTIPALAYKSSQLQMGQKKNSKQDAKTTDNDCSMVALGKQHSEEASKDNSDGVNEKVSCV
Chain of D(1A) dopamine receptor (P21728 whole entry): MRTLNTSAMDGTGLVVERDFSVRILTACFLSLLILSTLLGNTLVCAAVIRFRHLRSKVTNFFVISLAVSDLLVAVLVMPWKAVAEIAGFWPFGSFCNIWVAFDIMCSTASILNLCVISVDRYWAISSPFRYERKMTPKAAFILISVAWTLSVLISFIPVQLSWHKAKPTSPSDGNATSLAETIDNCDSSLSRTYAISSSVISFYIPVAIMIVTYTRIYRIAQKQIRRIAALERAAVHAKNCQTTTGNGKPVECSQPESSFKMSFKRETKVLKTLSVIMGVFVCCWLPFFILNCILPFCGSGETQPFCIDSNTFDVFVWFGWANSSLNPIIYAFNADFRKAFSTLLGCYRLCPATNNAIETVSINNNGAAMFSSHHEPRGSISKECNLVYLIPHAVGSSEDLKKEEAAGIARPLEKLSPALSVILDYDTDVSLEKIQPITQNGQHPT
Chain of Gamma-aminobutyric acid receptor subunit alpha-1/alpha-2/beta-2/gamma-2 (P14867 whole entry): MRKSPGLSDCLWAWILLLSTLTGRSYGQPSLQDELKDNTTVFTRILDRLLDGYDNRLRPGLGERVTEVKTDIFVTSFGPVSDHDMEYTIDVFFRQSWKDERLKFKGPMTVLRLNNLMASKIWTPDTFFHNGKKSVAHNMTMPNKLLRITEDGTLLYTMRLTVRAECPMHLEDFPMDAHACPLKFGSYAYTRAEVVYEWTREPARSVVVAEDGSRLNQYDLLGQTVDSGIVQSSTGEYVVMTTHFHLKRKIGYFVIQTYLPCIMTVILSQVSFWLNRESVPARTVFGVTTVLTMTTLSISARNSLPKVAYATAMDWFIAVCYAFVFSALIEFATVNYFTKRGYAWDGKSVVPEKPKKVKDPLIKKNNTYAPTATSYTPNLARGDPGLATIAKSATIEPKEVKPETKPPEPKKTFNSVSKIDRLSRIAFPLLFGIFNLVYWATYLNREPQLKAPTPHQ
Chain of Gamma-aminobutyric acid receptor subunit alpha-1/alpha-2/beta-2/gamma-2 (P47870 whole entry): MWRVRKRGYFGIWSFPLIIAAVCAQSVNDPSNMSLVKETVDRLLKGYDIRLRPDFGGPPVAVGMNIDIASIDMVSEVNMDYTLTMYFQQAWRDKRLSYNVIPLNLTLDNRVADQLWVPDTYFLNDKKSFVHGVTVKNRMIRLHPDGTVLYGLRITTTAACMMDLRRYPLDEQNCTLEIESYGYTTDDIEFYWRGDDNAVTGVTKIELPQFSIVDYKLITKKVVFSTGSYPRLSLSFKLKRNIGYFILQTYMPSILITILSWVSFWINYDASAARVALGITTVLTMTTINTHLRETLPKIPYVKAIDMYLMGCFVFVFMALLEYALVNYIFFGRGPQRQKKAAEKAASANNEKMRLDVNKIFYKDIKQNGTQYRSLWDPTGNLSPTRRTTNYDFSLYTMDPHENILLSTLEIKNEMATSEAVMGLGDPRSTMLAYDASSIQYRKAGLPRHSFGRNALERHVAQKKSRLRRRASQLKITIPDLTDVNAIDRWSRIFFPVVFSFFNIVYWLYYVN
Chain of Gamma-aminobutyric acid receptor subunit alpha-1/alpha-2/beta-2/gamma-2 (P18507 whole entry): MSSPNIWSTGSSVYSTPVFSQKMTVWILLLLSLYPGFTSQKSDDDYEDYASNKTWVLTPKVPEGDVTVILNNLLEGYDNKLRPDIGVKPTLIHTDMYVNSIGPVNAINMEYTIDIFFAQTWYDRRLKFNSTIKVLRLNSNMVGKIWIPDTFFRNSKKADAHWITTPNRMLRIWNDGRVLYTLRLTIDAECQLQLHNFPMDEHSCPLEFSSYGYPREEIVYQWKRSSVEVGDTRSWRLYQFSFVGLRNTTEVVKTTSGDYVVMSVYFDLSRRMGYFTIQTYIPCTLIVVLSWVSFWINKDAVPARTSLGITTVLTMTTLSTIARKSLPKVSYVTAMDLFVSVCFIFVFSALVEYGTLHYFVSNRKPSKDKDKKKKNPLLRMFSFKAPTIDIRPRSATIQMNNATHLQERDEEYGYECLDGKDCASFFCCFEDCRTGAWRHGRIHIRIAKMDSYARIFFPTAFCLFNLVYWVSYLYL
Chain of Gamma-aminobutyric acid receptor subunit alpha-1/alpha-2/beta-2/gamma-2 (P47869 whole entry): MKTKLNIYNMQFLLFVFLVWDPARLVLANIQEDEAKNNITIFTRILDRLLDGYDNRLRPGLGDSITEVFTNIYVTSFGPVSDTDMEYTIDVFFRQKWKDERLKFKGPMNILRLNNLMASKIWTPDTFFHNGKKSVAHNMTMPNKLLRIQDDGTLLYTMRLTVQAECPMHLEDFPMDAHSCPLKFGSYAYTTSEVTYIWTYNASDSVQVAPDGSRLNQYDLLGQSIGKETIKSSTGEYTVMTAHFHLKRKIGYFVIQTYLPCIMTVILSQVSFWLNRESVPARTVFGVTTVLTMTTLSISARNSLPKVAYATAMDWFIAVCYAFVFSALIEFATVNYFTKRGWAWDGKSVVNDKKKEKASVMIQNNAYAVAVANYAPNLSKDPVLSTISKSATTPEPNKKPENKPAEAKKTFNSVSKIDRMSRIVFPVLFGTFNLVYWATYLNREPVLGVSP

In the case of `C[C@@H](NCCCc1cccc(C(F)(F)F)c1)c1cccc2ccccc12`, the results for the AC50 (in assay [1]; at Histamine H1 receptor; in assay [2]) were > 30 µM, 16 µM and > 30 µM, respectively.

`CN(C)CCc1c[nH]c2ccc(Cn3cncn3)cc12` [RIZATRIPTAN]: the AC50 (as a rule, the midpoint of the concentration-response curve, whichever way the signal moves) is 7.75 µM in assay [1]; > 10 µM at D(1A) dopamine receptor; 5.79 µM at Histamine H1 receptor; > 10 µM in assay [3]; > 30 µM in [4]; > 30 µM in assay [5]. For the same molecule, the AC50 in assay [2] is > 30 µM.

On to `OC[C@H]1O[C@@](CO)(O[C@H]2O[C@H](CO)[C@@H](O)[C@H](O)[C@H]2O)[C@@H](O)[C@@H]1O` [SUCROSE], for which the AC50 (in assay [1]; on Histamine H1 receptor; in assay [2]) was > 30 µM throughout.

Take `COc1cc2nccc(Oc3ccc(NC(=O)C4(C(=O)Nc5ccc(F)cc5)CC4)cc3)c2cc1OC` [CABOZANTINIB]: the concentration at half-maximal activity (AC50) (in [1]; at Androgen receptor; on Histamine H1 receptor; in assay [2]) was > 30 µM throughout.

`N[C@@H](CC(=O)N1CCn2c(nnc2C(F)(F)F)C1)Cc1cc(F)c(F)cc1F` [SITAGLIPTIN]: the AC50 on D(1A) dopamine receptor is > 10 µM; in assay [6], > 10 µM; at Histamine H1 receptor it was > 30 µM; in assay [3], > 10 µM; in [5], > 10 µM; in [2], > 30 µM.

`CC(S)C(=O)NCC(=O)O` (centres undefined) [TIOPRONIN]: the AC50 (in assay [1]; at Histamine H1 receptor; in assay [2]) was > 30 µM throughout.

For the molecule `COc1ccccc1Oc1c(NS(=O)(=O)c2ccc(C(C)(C)C)cc2)nc(-c2ncccn2)nc1OCCO` [BOSENTAN], the AC50 at D(1A) dopamine receptor is > 10 µM; in assay [6], > 10 µM; at Histamine H1 receptor, > 10 µM; in assay [3] it was > 10 µM; in assay [4], > 30 µM; in assay [5], > 30 µM.

On to `CCN1CCN(Cc2ccc(Nc3ncc(F)c(-c4cc(F)c5nc(C)n(C(C)C)c5c4)n3)nc2)CC1` [ABEMACICLIB], for which the AC50 in [1] was > 30 µM; on Histamine H1 receptor, 23 µM; in assay [2], > 30 µM.

`CN(CC1(C)CCCO1)S(=O)(=O)c1ccc(Cl)c(S(N)(=O)=O)c1` (centres undefined) [MEFRUSIDE]: the AC50 (in assay [1]; on Histamine H1 receptor; in [2]) was > 30 µM throughout.

With `C#C[C@]1(O)CC[C@H]2[C@@H]3CCC4=CC(=O)CC[C@@H]4[C@H]3C(=C)C[C@@]21CC` [ETONOGESTREL], the AC50 (in assay [1]; at Histamine H1 receptor; in assay [2]) was > 30 µM each time.

Take `CCCN(CCC)C(=O)Cc1c(-c2ccc(Cl)cc2)nc2ccc(Cl)cn12` [ALPIDEM]: the AC50 at D(1A) dopamine receptor was > 10 µM; in assay [6], > 10 µM; at Histamine H1 receptor, > 30 µM; in [3], > 10 µM; in assay [2] it was > 10 µM.

Take `C[C@H](CCC(=O)O)[C@H]1CC[C@H]2[C@@H]3[C@@H](O)C[C@@H]4C[C@H](O)CC[C@]4(C)[C@H]3CC[C@]12C` [URSODIOL]: the AC50 (in [1]; at Histamine H1 receptor; in assay [2]) was > 30 µM in each case.

On to `CC(C)c1nc(N(C)S(C)(=O)=O)nc(-c2ccc(F)cc2)c1/C=C/[C@@H](O)C[C@@H](O)CC(=O)O` [ROSUVASTATIN], for which the AC50 (in [1]; at Histamine H1 receptor; in assay [2]) was > 30 µM each time.

As to `C=CC[C@@H]1/C=C(\C)C[C@H](C)C[C@H](OC)[C@H]2O[C@@](O)(C(=O)C(=O)N3CCCC[C@H]3C(=O)O[C@H](/C(C)=C/[C@@H]3CC[C@@H](O)[C@H](OC)C3)[C@H](C)[C@@H](O)CC1=O)[C@H](C)C[C@@H]2OC` [TACROLIMUS ANHYDROUS], the AC50 at D(1A) dopamine receptor was > 10 µM; in assay [6], > 10 µM; in assay [3] it was > 10 µM; in assay [4], > 30 µM; in assay [5], > 30 µM; in assay [2], > 30 µM.

`CO[C@H]1/C=C/O[C@@]2(C)Oc3c(C)c(O)c4c(O)c(c(/C=N/N5CCN(C)CC5)c(O)c4c3C2=O)NC(=O)/C(C)=C\C=C\[C@H](C)[C@H](O)[C@@H](C)[C@@H](O)[C@@H](C)[C@H](OC(C)=O)[C@@H]1C` [RIFAMPIN]: the AC50 on D(1A) dopamine receptor was > 10 µM; in assay [6], > 10 µM; in assay [3], > 10 µM; in assay [4] it was > 30 µM; in assay [5], > 30 µM.

For `CN(C)CCC[C@@]1(c2ccc(F)cc2)OCc2cc(C#N)ccc21` [ESCITALOPRAM], the AC50 in assay [2] is > 30 µM.

Take `C[C@@H](Oc1cc(-c2cnn(C3CCNCC3)c2)cnc1N)c1c(Cl)ccc(F)c1Cl` [CRIZOTINIB]: the AC50 is > 10 µM on D(1A) dopamine receptor; > 10 µM in assay [6]; > 30 µM at Histamine H1 receptor; > 30 µM in assay [4]; 17 µM in assay [2].
